Experimental findings from publication PMC4685510, “A Cell Biologist’s Field Guide to Aurora Kinase Inhibitors” (Frontiers in Oncology, 2015) are described below.

SMILES strings stand for the structures.

What all share (assay): biochemical
What all share (format): biochemical

Assay [1] has as its target 363 human kinases (including Aurora A/B/C) (Homo sapiens, UniProt Q15375). The settings on record: EPHA7, [ATP] 100 µM; for remaining activity at 0.5 µM / remaining activity at 0.1 µM: read-out: % Enzyme Activity (relative to DMSO controls); for remaining activity at 0.1 µM: 100 nM.
From the text: (§1) However, the Aurora A/B selectivity ratios derived from our in vitro and in vivo data can be compared to prioritize inhibitors.
Assay [2] concerns the target 363 human kinases (including Aurora A/B/C) (Homo sapiens, UniProt P53355). Particulars: DAPK1, [ATP] 10 µM; for remaining activity at 0.5 µM / remaining activity at 0.1 µM: read-out: % Enzyme Activity (relative to DMSO controls); for remaining activity at 0.1 µM: 100 nM.
From the text: as §1
For assay [3], the target named is 363 human kinases (including Aurora A/B/C) (Homo sapiens, UniProt Q96RR4). Particulars: CAMKK2, [ATP] 30 µM; for remaining activity at 0.5 µM / remaining activity at 0.1 µM: read-out: % Enzyme Activity (relative to DMSO controls); for remaining activity at 0.1 µM: 100 nM.
From the text: as §1
Assay [4] addresses 363 human kinases (including Aurora A/B/C) (Homo sapiens, UniProt Q16539). The settings on record: P38a/MAPK14; for remaining activity at 0.5 µM / remaining activity at 0.1 µM: read-out: % Enzyme Activity (relative to DMSO controls); for remaining activity at 0.1 µM: 100 nM.
From the text: as §1
Assay [5] concerns the target 363 human kinases (including Aurora A/B/C) (Homo sapiens, UniProt Q5VT25). Particulars: MRCKa/CDC42BPA; for remaining activity at 0.5 µM / remaining activity at 0.1 µM: read-out: % Enzyme Activity (relative to DMSO controls); for remaining activity at 0.1 µM: 100 nM.
From the text: as §1
The target in assay [6] is T1, 363 human kinases (including Aurora A/B/C) (Homo sapiens, UniProt Q8IYT8).
T1 sequence (Q8IYT8 1-1036): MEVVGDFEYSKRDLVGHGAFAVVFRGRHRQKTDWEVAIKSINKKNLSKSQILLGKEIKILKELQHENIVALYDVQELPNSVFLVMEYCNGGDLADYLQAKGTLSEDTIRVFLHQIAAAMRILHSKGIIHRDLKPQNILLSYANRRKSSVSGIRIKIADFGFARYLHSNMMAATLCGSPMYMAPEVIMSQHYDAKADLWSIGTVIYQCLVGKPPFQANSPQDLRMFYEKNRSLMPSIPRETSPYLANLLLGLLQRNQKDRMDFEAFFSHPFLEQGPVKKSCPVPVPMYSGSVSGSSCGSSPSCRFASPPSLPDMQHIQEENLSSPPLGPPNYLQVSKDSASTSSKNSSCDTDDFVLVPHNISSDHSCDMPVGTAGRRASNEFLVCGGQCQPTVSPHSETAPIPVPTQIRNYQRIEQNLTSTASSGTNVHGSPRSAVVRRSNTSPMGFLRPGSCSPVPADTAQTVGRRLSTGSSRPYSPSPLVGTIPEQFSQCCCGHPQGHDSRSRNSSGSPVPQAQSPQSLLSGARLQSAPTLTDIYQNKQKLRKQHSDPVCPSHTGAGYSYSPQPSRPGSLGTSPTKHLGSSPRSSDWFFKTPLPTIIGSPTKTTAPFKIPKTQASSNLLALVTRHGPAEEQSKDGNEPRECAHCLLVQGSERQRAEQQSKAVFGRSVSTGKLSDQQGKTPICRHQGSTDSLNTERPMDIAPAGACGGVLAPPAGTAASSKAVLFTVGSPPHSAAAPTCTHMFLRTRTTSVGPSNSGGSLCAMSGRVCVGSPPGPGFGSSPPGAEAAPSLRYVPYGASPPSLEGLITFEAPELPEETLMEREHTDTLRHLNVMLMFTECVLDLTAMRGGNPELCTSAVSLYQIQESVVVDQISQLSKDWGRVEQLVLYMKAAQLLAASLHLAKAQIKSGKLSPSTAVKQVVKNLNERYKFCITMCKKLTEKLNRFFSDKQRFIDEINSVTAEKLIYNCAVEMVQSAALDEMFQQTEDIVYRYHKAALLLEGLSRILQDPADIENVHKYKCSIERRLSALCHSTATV
Particulars: ULK2; for remaining activity at 0.5 µM / remaining activity at 0.1 µM: read-out: % Enzyme Activity (relative to DMSO controls); for remaining activity at 0.1 µM: 100 nM.
From the text: as §1

Assay [7] deals with 363 human kinases (including Aurora A/B/C) (Homo sapiens, UniProt Q8NEV4). The settings on record: MYO3A; for remaining activity at 0.5 µM / remaining activity at 0.1 µM: read-out: % Enzyme Activity (relative to DMSO controls); for remaining activity at 0.1 µM: 100 nM.
From the text: as §1
The target of assay [8] is T2, 363 human kinases (including Aurora A/B/C) (Homo sapiens, UniProt P43403).
T2 sequence (P43403 1-619): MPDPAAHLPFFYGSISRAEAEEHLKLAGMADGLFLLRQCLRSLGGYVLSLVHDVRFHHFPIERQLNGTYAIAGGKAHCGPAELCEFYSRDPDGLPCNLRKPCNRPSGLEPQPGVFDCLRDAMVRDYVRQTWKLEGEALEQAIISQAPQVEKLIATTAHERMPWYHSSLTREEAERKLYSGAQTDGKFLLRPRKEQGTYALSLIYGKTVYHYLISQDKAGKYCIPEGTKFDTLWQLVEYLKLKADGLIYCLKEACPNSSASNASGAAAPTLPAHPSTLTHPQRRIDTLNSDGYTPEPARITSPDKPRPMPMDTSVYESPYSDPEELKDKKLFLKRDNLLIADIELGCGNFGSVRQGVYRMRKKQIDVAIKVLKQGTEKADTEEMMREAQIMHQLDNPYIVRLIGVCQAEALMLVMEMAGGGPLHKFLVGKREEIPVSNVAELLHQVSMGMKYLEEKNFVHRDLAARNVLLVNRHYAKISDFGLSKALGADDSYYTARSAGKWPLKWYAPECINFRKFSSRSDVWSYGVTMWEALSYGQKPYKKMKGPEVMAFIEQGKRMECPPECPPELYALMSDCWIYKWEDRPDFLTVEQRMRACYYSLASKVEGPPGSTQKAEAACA
Particulars: ZAP70; for remaining activity at 0.5 µM / remaining activity at 0.1 µM: read-out: % Enzyme Activity (relative to DMSO controls); for remaining activity at 0.1 µM: 100 nM.
From the text: as §1

The target in assay [9] is T3, 363 human kinases (including Aurora A/B/C) (Homo sapiens, UniProt P41743).
T3 sequence (P41743 1-596): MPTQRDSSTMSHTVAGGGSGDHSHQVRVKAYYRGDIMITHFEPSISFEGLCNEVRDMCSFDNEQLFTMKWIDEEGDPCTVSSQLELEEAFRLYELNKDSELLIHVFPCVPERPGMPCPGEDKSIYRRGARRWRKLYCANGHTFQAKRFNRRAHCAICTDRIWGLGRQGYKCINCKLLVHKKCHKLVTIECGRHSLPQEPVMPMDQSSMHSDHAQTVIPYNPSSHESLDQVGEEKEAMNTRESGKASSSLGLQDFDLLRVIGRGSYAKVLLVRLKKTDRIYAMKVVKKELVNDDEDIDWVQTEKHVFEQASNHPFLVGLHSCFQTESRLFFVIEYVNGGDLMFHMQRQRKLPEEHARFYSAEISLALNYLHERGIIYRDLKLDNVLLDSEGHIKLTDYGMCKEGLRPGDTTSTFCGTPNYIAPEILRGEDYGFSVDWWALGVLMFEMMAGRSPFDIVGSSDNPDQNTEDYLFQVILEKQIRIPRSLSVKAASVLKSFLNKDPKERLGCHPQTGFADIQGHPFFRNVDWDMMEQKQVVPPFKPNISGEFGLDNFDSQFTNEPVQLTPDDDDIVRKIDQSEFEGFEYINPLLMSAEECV
The settings on record: PKCiota; for remaining activity at 0.5 µM / remaining activity at 0.1 µM: read-out: % Enzyme Activity (relative to DMSO controls); for remaining activity at 0.1 µM: 100 nM.
From the text: as §1

Sequence of 363 human kinases (including Aurora A/B/C) (Homo sapiens, UniProt Q8NEV4) (Q8NEV4 whole entry): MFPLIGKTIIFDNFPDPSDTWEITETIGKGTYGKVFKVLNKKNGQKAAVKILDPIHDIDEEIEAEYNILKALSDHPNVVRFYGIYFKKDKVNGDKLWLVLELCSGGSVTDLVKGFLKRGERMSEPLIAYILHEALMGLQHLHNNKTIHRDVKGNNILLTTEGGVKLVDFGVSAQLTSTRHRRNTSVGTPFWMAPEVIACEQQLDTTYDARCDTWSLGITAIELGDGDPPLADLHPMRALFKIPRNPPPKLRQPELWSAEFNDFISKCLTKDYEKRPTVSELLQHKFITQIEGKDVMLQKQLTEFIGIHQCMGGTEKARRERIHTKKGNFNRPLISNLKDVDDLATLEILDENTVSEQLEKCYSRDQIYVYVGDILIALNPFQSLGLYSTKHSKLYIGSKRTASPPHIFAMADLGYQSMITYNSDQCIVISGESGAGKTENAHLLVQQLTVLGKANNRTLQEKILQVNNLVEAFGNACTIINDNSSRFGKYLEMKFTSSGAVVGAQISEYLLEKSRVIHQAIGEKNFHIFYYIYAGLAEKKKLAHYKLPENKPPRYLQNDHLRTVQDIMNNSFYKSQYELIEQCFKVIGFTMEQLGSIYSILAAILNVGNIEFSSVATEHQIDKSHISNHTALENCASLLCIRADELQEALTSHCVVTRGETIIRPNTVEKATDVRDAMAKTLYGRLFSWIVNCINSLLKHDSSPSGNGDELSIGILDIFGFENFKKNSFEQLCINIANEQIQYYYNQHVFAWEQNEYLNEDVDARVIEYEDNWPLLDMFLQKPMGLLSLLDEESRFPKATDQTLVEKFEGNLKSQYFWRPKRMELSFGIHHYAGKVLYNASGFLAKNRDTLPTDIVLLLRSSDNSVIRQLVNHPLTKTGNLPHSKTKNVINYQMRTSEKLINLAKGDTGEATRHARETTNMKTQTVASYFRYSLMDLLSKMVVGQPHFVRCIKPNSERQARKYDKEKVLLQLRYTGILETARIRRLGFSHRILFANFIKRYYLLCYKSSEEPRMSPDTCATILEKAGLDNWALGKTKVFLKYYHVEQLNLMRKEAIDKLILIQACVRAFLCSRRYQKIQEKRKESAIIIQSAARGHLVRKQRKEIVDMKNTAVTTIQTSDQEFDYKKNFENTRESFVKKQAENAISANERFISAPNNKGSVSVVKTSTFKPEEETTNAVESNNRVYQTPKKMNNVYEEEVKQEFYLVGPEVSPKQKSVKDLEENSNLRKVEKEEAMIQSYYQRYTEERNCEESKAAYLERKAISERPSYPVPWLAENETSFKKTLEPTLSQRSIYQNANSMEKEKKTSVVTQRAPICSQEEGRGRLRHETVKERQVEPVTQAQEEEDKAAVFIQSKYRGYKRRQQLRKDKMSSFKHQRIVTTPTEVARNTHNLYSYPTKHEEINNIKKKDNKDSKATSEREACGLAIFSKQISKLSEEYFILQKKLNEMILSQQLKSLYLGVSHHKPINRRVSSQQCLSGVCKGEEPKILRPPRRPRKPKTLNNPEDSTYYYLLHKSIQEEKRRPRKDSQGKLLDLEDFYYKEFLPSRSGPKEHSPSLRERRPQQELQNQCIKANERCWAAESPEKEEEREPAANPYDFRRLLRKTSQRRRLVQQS
Sequence of 363 human kinases (including Aurora A/B/C) (Homo sapiens, UniProt Q96RR4) (Q96RR4 whole entry): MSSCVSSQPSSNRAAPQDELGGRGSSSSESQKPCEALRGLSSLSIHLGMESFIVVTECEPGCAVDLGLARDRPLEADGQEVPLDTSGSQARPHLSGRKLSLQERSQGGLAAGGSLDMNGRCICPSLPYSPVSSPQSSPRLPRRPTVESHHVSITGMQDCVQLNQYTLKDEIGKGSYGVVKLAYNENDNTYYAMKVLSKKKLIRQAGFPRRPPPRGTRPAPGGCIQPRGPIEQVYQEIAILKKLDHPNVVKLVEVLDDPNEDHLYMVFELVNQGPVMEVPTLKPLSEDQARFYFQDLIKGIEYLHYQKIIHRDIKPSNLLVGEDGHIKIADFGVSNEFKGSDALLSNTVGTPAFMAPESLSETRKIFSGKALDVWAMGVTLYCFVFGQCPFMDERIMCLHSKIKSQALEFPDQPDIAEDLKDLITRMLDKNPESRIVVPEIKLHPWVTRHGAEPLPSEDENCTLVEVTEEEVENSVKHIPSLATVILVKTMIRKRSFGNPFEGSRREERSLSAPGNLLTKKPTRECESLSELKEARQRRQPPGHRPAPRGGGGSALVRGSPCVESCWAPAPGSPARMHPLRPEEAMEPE
Sequence of 363 human kinases (including Aurora A/B/C) (Homo sapiens, UniProt Q16539) (Q16539 whole entry): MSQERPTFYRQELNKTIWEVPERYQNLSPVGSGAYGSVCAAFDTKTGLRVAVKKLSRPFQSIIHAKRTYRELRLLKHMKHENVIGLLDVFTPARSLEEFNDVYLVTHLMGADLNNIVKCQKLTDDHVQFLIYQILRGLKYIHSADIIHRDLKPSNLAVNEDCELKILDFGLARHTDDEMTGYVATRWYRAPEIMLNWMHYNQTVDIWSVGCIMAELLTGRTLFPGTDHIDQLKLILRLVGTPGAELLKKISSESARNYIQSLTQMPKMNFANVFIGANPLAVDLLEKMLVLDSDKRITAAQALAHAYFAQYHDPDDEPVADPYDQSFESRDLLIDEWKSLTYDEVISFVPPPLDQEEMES
Sequence of 363 human kinases (including Aurora A/B/C) (Homo sapiens, UniProt P53355) (P53355 whole entry): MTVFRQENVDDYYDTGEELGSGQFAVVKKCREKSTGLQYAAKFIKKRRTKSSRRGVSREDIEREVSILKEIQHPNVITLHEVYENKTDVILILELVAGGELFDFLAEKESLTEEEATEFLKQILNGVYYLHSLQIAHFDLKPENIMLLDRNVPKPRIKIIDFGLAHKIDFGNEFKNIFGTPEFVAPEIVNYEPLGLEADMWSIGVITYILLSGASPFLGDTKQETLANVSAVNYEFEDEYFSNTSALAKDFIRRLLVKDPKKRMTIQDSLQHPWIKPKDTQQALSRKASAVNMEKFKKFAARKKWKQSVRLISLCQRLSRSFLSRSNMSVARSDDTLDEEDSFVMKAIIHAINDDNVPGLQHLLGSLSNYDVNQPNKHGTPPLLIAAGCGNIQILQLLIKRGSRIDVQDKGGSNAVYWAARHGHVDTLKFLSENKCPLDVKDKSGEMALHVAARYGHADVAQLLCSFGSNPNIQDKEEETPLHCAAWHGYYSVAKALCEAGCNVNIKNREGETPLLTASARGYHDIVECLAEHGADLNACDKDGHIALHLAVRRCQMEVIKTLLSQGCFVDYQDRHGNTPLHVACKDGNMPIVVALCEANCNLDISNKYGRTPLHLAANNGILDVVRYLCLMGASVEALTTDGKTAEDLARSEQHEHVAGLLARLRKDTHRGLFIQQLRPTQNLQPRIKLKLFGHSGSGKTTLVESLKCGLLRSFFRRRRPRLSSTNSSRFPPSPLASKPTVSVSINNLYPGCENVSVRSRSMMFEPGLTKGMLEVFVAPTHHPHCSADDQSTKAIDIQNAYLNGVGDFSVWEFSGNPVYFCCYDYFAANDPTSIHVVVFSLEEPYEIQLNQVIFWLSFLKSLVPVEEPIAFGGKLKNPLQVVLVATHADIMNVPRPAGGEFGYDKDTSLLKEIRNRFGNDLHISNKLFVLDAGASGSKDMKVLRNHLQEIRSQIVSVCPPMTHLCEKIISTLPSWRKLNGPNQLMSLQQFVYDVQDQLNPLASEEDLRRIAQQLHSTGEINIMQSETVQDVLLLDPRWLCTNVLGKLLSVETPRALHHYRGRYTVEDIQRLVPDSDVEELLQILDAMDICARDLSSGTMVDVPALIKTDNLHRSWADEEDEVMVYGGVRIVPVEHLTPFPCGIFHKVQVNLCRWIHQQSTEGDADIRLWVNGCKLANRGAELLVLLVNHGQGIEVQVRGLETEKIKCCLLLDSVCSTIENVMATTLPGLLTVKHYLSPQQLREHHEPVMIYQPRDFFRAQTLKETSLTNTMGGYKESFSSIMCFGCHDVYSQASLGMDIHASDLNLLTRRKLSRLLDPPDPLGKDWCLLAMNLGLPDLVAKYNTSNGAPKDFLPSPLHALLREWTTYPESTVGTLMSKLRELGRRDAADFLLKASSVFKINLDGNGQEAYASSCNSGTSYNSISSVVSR
Sequence of 363 human kinases (including Aurora A/B/C) (Homo sapiens, UniProt Q15375) (Q15375 28-998): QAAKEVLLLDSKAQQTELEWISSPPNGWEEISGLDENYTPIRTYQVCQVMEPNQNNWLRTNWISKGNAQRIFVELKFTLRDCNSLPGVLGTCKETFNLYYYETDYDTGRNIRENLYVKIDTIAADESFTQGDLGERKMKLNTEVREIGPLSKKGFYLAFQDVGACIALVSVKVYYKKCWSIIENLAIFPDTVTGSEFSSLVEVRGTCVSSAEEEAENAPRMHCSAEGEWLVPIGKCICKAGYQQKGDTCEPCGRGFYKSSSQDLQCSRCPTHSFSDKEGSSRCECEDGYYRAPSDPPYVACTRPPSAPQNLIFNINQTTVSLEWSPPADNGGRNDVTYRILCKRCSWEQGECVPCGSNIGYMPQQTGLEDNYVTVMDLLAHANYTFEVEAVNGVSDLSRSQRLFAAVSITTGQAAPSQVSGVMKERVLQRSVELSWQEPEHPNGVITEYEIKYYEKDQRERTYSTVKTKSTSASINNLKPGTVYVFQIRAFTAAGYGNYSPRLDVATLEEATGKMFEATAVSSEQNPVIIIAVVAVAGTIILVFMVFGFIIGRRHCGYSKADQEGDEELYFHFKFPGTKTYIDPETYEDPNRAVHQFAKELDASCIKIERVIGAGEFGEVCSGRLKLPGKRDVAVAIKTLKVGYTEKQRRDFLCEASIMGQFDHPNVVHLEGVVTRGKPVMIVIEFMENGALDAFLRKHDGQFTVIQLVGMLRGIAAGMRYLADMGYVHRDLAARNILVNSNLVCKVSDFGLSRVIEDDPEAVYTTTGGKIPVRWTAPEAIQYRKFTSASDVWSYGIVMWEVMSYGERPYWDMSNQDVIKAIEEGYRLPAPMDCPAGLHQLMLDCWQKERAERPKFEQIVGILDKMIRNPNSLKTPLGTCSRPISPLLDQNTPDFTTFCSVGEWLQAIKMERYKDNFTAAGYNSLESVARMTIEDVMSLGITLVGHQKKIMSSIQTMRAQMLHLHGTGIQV

Consider `O=C(c1cccc(Cl)c1F)N1CCN(Cc2cccc(Nc3nccs3)n2)CC1` [MK-8745], for which the “% Enzyme Activity (relative to DMSO controls)” value is 62.14% in assay [1] (500 nM); 98.77% in assay [2] (500 nM); 199.08% in assay [3] (500 nM); 95.14% in assay [4] (500 nM); 103.58% in [5] (500 nM); 140.35% in assay [6] (500 nM). For the same compound, the “% Enzyme Activity (relative to DMSO controls)” value came to 66.28% in [7] (500 nM), 97.69% in assay [8] (500 nM) and 95.15% in [9] (500 nM). The remaining activity at 0.5 µM in assay [1] (500 nM) is 63.1%; in assay [2] (500 nM), 101%; in [3] (500 nM), 204%; in [4] (500 nM), 95.3%; in [5] (500 nM) it was 104%; in assay [6] (500 nM), 144%. Further, the results for the remaining activity at 0.5 µM in [7] (500 nM), in [8] (500 nM) and in [9] (500 nM) were 71.2%, 109% and 98%, respectively.

Take `CCn1cc(-c2ccnc3[nH]c(-c4cccc(CN(C)C)c4)cc23)c(-c2ccc(NC(=O)N(C)C)cc2)n1` [GSK1070916]: the remaining activity at 0.1 µM worked out at 89% in assay [1]; 94.7% in [2]; 76.9% in assay [3]; 93.6% in assay [4]; 108% in assay [5]; 141% in [6]. The figures for the remaining activity at 0.1 µM in assay [7], in assay [8] and in assay [9] were 92.9%, 105% and 99.1%, respectively.

In the case of `O=C(O)[C@]1(Cc2cccc(Nc3nccs3)n2)CC[C@@H](Oc2cccc(Cl)c2F)CC1` [MK-5108], the remaining activity at 0.1 µM in [1] is 35.6%; in assay [2] it was 104%; in assay [3] it was 111%; in [4], 95.2%; in assay [5] it was 93.7%; in [6] it was 113%. For the same compound, the values for the remaining activity at 0.1 µM in assay [7], in [8] and in assay [9] were 90.8%, 103% and 94.3%, respectively. Moreover, the remaining activity at 0.5 µM was 9.76% in [1] (500 nM); 101% in assay [2] (500 nM); 87.7% in assay [3] (500 nM); 101% in assay [4] (500 nM); 103% in assay [5] (500 nM); 134% in assay [6] (500 nM). Moreover, the remaining activity at 0.5 µM in [7] (500 nM) was found to be 131%; in [8] (500 nM) it was 113%; in assay [9] (500 nM), 102%.
